Measurements reported in ChEMBL document CHEMBL5042483, “Discovery and Mechanism of SARS-CoV-2 Main Protease Inhibitors” (J Med Chem, 2022).
Calls of active or inactive are those of the source. The calls are words filed in the database; no cut-off is given here.

Legend:
[1] = Inhibition of GST-tagged SARS-CoV-2 main protease expressed in Escherichia coli BL21 competent cells using DABCYL-Val-Asn-Ser-Thr-Leu-Gln-Ser-Gly-Leu-Arg-Lys-EDANS as substrate measured every 10 mins for 1 hr by FRET assay; design: species or system Severe acute respiratory syndrome coronavirus 2
SARS-CoV-2 [2] = assay: Antiviral activity against SARS-CoV-2 USA_WA1/2020 infected in human Calu-3 cells assessed as reduction in viral RNA replication pretreated for 1 hr with compound followed by viral infection for 1.5 hrs then followed by washout the cells and re-incubated with compounds for 24 hrs by qRT-PCR method; format: functional, organism-based; details: Severe acute respiratory syndrome coronavirus 2, USA_WA1/2020, Calu-3
[3] = Distribution coefficient, logD of compound at pH 7.4 by shake flask method; format: physicochemical; details: octanol/water
[4] = tested on: Severe acute respiratory syndrome coronavirus 2; assay: Competitive inhibition of SARS-CoV-2 main protease assessed as inhibitor concentration dependent Km with constant Vmax at 0.5 to 10 uM using varying concentrations of DABCYL-KTSAVLQ1SGFRKM-E(EDANS)-NH2 as substrate by double reciprocal plot analysis; details: dose 0.5-10 µM
[5] = tested on: Severe acute respiratory syndrome coronavirus 2; assay: (§1) Reversible covalent inhibition of SARS-CoV-2 main protease expressed in Escherichia coli BL21 competent cells using DABCYL-Val-Asn-Ser-Thr-Leu-Gln-Ser-Gly-Leu-Arg-Lys-EDANS as fluorogenic substrate assessed as reduction in product formation at 10 uM incubated for 30 mins by dilution assay relative to control
[6] = tested on: Severe acute respiratory syndrome coronavirus 2; assay: as §1, with “preincubated” for “incubated”, “mins in presence of DTT” for “mins”
SARS-CoV-2 [7] = format: functional, organism-based, Vero E6; details: Severe acute respiratory syndrome coronavirus 2, USA_WA1/2020, Vero C1008
[8] = tested on: Severe acute respiratory syndrome coronavirus 2; assay: as §1, with “1” for “10”, “preincubated” for “incubated”, “mins in absence of DTT” for “mins”
[9] = tested on: Severe acute respiratory syndrome coronavirus 2; assay: as §1, with “preincubated” for “incubated”, “mins in absence of DTT” for “mins”
[10] = tested on: Severe acute respiratory syndrome coronavirus 2; assay: (§2) Reversible covalent inhibition of SARS-CoV-2 main protease expressed in Escherichia coli BL21 competent cells using DABCYL-Val-Asn-Ser-Thr-Leu-Gln-Ser-Gly-Leu-Arg-Lys-EDANS as fluorogenic substrate assessed as reduction in product formation at 1 to 10 uM preincubated for 30 mins in presence of DTT by dilution assay; details: dose 1-10 µM
[11] = tested on: Severe acute respiratory syndrome coronavirus 2; assay: as §1, with “1” for “10”
[12] = Inhibition of SARS-CoV-2 main protease expressed in Escherichia coli using MCA-AVLQSGFR-Lys(Dnp)-Lys-NH2 as substrate by FRET assay; design: species or system Severe acute respiratory syndrome coronavirus 2
SARS-CoV-2 [13] = assay: microbe, parasite or virus in culture; details: Severe acute respiratory syndrome coronavirus 2, Vero C1008, 24 h
[14] = Toxicity in human iPSC derived lung organoids infected with SARS-CoV-2 USA_WA1/2020 measured after 24 hrs
[15] = tested on: Severe acute respiratory syndrome coronavirus 2; assay: as §2, with “1” for “1 to 10”, “assay relative to control” for “assay”

SMILES | IC50 [1] [nM] | EC50 (SARS-CoV-2 [7]) [µM] | also measured
O=c1c2ccccc2[se]n1-c1ccc(C(F)(F)F)cc1 | 900 | 11.2 | EC50 (SARS-CoV-2 [2]): 2.8 µM; logD [3]: 3.19; inhibition [4]: Active; inhibition [5]: 86%; inhibition [6]: 43%; inhibition [8]: 44%; inhibition [9]: 48%
COc1ccc(-n2[se]c3ccccc3c2=O)cc1 | 1250 | 1.7 | 
CCC(CC)COC(=O)[C@H](C)NP(=O)(OC[C@H]1O[C@@](C#N)(c2ccc3c(N)ncnn23)[C@H](O)[C@@H]1O)Oc1ccccc1 (single isomer, unassigned) |  | 1.8 | EC50 (SARS-CoV-2 [2]): 0.8 µM
CSc1ccccc1-n1[se]c2ccccc2c1=O | > 10000 | > 20 | 
O=c1c2ccccc2[se]n1-c1ccc(Cl)cc1OC(F)(F)F | > 10000 | > 20 | 
COc1ccc(Cl)cc1-n1[se]c2ccccc2c1=O | > 10000 | > 20 | 
CCCCCCCCn1[se]c2ccccc2c1=O | 2690 | > 20 | 
COc1ccc2c(=O)n(-c3ccccc3)[se]c2c1 | 6400 | 11.2 | 
CCCCCCCn1[se]c2ccccc2c1=O | 5560 | 17.3 | 
COc1cc(F)ccc1-n1[se]c2ccccc2c1=O | 1800 | > 20 | 
O=c1c2ccccc2[se]n1-c1ccccc1F | > 10000 | > 20 | 
COc1ccc(Cn2[se]c3ccccc3c2=O)c(OC)c1 | 610 | 26.5 | inhibition [10]: Active; logD [3]: 0.85
O=c1c2ccccc2[se]n1-c1cc(Cl)cc(Cl)c1 | 640 | 18.2 | inhibition [10]: Active; logD [3]: 1.67
O=c1c2ccccc2[se]n1-c1ccccc1 [EBSELEN] |  | > 20 | EC50 (SARS-CoV-2 [2]): 5 µM; logD [3]: 0.92; inhibition [11]: 65%; inhibition [4]: Active; inhibition [5]: 89%; inhibition [9]: 91%
O=c1c2ccccc2[se]n1-c1cccc(Cl)c1 | 680 | 17.4 | inhibition [10]: Active; logD [3]: 1.53
N#Cc1cccc(-n2[se]c3ccccc3c2=O)c1 | 380 | 2 | logD [3]: 1.45; inhibition [11]: 29%; inhibition [5]: 94%; inhibition [9]: 64%

SMILES | IC50 [1] [nM] | EC50 (SARS-CoV-2 [7]) [µM] | also measured
COc1cccc(-n2[se]c3ccccc3c2=O)c1 | > 10000 | 15.1 | 
CCc1ccc(-n2[se]c3ccccc3c2=O)cc1 | 6180 | 6.5 | EC50 (SARS-CoV-2 [2]): 8.8 µM; logD [3]: 2.87
O=c1c2ccccc2[se]n1-c1ccc(F)cc1C(F)(F)F | > 10000 | > 20 | 
Cc1ccc(-n2[se]c3ccccc3c2=O)cc1C | > 10000 | 12.2 | 
O=C[C@H](C[C@@H]1CCNC1=O)NC(=O)[C@H](Cc1cccc(F)c1)NC(=O)c1cc2ccccc2[nH]1 |  |  | IC50 [12]: 40 nM; EC50 (SARS-CoV-2 [13]): 720 nM
Cc1ccccc1-n1[se]c2ccccc2c1=O | 7430 | 20.7 | 
Cc1ccc(-n2[se]c3ccccc3c2=O)cc1 | 2290 | 15.4 | 
O=c1c2ccccc2[se]n1-c1cccc(C(F)(F)F)c1 | 2770 | 0.8 | EC50 (SARS-CoV-2 [2]): 1.3 µM; logD [3]: 3.18; Activity [14]: Non-Toxic
O=c1c2ccccc2[se]n1-c1ccc(F)cc1 | 2780 | 16.7 | 
COc1ccc(F)cc1-n1[se]c2ccccc2c1=O | 3300 | > 20 | 
CCCCCn1[se]c2ccccc2c1=O | > 10000 | > 20 | 
COc1ccc(Cn2[se]c3ccccc3c2=O)cc1 | > 10000 | > 20 | 
O=c1c2ccccc2[se]n1-c1c(F)cccc1F | 2090 | > 20 | 
O=c1c2ccccc2[se]n1Cc1ccc(C(F)(F)F)cc1 | > 10000 | 11.2 | 
O=c1c2ccccc2[se]n1-c1ccc(Br)cc1 | 2770 | 5.2 | EC50 (SARS-CoV-2 [2]): 15.7 µM; logD [3]: 1.46
O=c1c2ccccc2[se]n1Cc1ccc(F)cc1 | 1000 | > 20 | inhibition [15]: 53%
